Ends that are not written are not given here.

Consider 1 substance from patent US20240041977A1, “ANNEXIN A1 N-TERMINAL PEPTIDE FORMULATIONS AND METHODS” (ResoTher Pharma A/S, priority 2020, published 2024).

The data set can be described thus: Solubility: concentration of AnxA1 in solution/supernatant by UV-VIS. It counts as physicochemical. The protocol: The concentration of AnxA1 was determined using UV-VIS spectroscopy using a Nanodrop 2000c from Thermo scientific and an extinction coefficient of A280^0.1%=1.64 ml mg^−1cm^−1.
Three samples of AnxA1 was prepared at pH 9 in Milli Q® water, 0.9% NaCl (154 mM) at concentrations 3.3, 1.6 and 0.8 mg/mL, respectively. pH was adjusted by addition of 0.1 M NaOH to each of the samples and the concentration determined after centrifugation using UV-VIS spectroscopy.
AnxA1 samples are dissolved in Milli Q® water or 5% mannitol in Milli Q® water to approximately 18 mg/mL and pH was adjusted using 1.0 M HCl and NaOH. After dissolution visual appearance was noted and a photograph was taken, see FIG. 6 and Table 4, and a sample was cleared by centrifugation and the concentration determined in the supernatant using UV-VIS spectroscopy.

The thermodynamic solubility is the concentration in solution at equilibrium with solid. In the case of “AMVSEFLKQAWFIENEEQEYVQTLKSSKGGPGSAVSPYPTFNPSSDV-NH2 [AnxA1]”, where the note is “0.9% NaCl (154 mM) in Milli Q water, saline or isotonic, 20 mg freeze-dried AnxA1 per mL 0.9% NaCl (154 mM) in Milli Q, neutral pH, over night at room temperature on rotation, spun down”, the thermodynamic solubility was about 170 µg/mL. For the same substance, the “solubility (concentration A280 as a function of pH)” value (AnxA1 3.3, 1.6 and 0.8 mg/mL in MiliQ water, 0.9% NaCl (154 mM), below pH 6.0) is listed as “very low”. The solubility entry (saline at neutral pH around 7.3) is recorded as “poorly soluble”.
